The nature of assay [1]: Displacement of fluorescein-neomycin from d(G4C4)2 DNA at 200 nM by fluorescence assay.
Assay [2] can be described thus: Displacement of thiazole orange from d(G4C4)2 DNA by Scatchard plot analysis.
The nature of assay [3]: Displacement of fluorescein-neomycin from d(G4C4)2 DNA by Scatchard plot analysis.
A short description of assay [4]: Binding affinity to d(G4C4)2 DNA major groove assessed as stabilization of A-from DNA conformation by measuring induction of sharper band at 265 nanometer at drug:DNA molar ratio of 1:1 after 30 mins by CD spectroscopic method.
The nature of assay [5]: Binding affinity to d(G4C4)2 DNA major groove assessed as stabilization of A-from DNA conformation after 30 mins by CD spectroscopic method.
Assay [6] in a line: Binding affinity to d(G4C4)2 DNA major groove assessed as stabilization of A-from DNA conformation at 0.05 to 1.5 equiv after 30 mins by fluorescein-neomycin probe based CD spectroscopic method.
The nature of assay [7]: Binding affinity to d(G4C4)2 DNA major groove assessed as stabilization of A-from DNA conformation at 0.25 to 1.5 equiv after 30 mins by thiazole orange probe based CD spectroscopic method.
A short description of assay [8]: Binding affinity to d(G4C4)2 DNA major groove assessed as stabilization of A-from DNA conformation at drug:DNA molar ratio of 4:1 after 30 mins by CD spectroscopic method.
Assay [9] is described as follows: Displacement of fluorescein-neomycin from d(G4C4)2 DNA major groove by fluorescence titration assay.

One may read the IC50 as the midpoint of a concentration-inhibition curve.

The source made the active and inactive calls. No cut-off for these calls is given here.

In the case of `NCC1O[C@H](O[C@H]2[C@@H](O)[C@H](O[C@@H]3[C@@H](O)[C@H](N)C[C@H](N)[C@H]3O[C@H]3O[C@H](CN)[C@@H](O)[C@H](O)[C@H]3N)O[C@@H]2CNC(=S)NCCCCCCCCCCNC(=S)NCc2ccc3c(c2)C(=O)c2ccccc2C3=O)[C@H](N)[C@@H](O)[C@@H]1O` (some centres undefined), the inhibition entry in [1] is “Active”.
Still for that read-out and setting: the value for `NCC1O[C@H](O[C@H]2[C@@H](O)[C@H](O[C@@H]3[C@@H](O)[C@H](N)C[C@H](N)[C@H]3O[C@H]3O[C@H](CN)[C@@H](O)[C@H](O)[C@H]3N)O[C@@H]2CSCCNC(=S)NCCCCCCCCCCNC(=S)NCc2ccc3c(c2)C(=O)c2ccccc2C3=O)[C@H](N)[C@@H](O)[C@@H]1O` (some centres undefined) was “Active”; that for `NCC1O[C@H](O[C@H]2[C@@H](O)[C@H](O[C@@H]3[C@@H](O)[C@H](N)C[C@H](N)[C@H]3O[C@H]3O[C@H](CN)[C@@H](O)[C@H](O)[C@H]3N)O[C@@H]2CNC(=S)Nc2ccc3c(c2)C(=O)c2ccccc2C3=O)[C@H](N)[C@@H](O)[C@@H]1O` (some centres undefined) was “Active”.
Turning to `NCC1O[C@H](O[C@H]2[C@@H](O)[C@H](O[C@@H]3[C@@H](O)[C@H](N)C[C@H](N)[C@H]3O[C@H]3O[C@H](CN)[C@@H](O)[C@H](O)[C@H]3N)O[C@@H]2CSCCNC(=S)NCCNC(=S)NCc2ccc3c(c2)C(=O)c2ccccc2C3=O)[C@H](N)[C@@H](O)[C@@H]1O` (some centres undefined), the Ka amounted to 3.09 ×10⁶ /M in [2] and 2.28 ×10⁶ /M in [3]. Further, the inhibition entry in assay [1] is “Active”.
For `NCC1O[C@H](O[C@H]2[C@@H](O)[C@H](O[C@@H]3[C@@H](O)[C@H](N)C[C@H](N)[C@H]3O[C@H]3O[C@H](CN)[C@@H](O)[C@H](O)[C@H]3N)O[C@@H]2CSCCNC(=S)NCCCOCCCCOCCCNC(=S)NCc2ccc3c(c2)C(=O)c2ccccc2C3=O)[C@H](N)[C@@H](O)[C@@H]1O` (some centres undefined) the same measures were 18.4 ×10⁶ /M, 4.02 ×10⁶ /M and “Active”.
Regarding `NCC1O[C@H](O[C@H]2[C@@H](O)[C@H](O[C@H]3[C@H](O)[C@@H](N)C[C@@H](N)[C@@H]3O[C@H]3O[C@H](CN)[C@@H](O)[C@H](O)[C@H]3N)O[C@@H]2CO)[C@H](N)[C@@H](O)[C@@H]1O` (some centres undefined), the outcome in assay [4] was Active. For the same compound, the inhibition result in assay [1] is “inactive”.
Regarding `NCC1O[C@H](O[C@H]2[C@@H](O)[C@H](O[C@@H]3[C@@H](O)[C@H](N)C[C@H](N)[C@H]3O[C@H]3O[C@H](CN)[C@@H](O)[C@H](O)[C@H]3N)O[C@@H]2CNC(=S)NCCCOCCCCOCCCNC(=S)NCc2ccc3c(c2)C(=O)c2ccccc2C3=O)[C@H](N)[C@@H](O)[C@@H]1O` (some centres undefined), the Ka was 11.8 ×10⁶ /M in assay [2] and 8.83 ×10⁶ /M in assay [3]. For the same compound, in [1], the inhibition result was “Active”.
Take `CCO`: the outcome in assay [5] was Active.
With `NCC1O[C@H](O[C@H]2[C@@H](O)[C@H](O[C@@H]3[C@@H](O)[C@H](N)C[C@H](N)[C@H]3O[C@H]3O[C@H](CN)[C@@H](O)[C@H](O)[C@H]3N)O[C@@H]2CNC(=S)NCCCNC(=S)NCc2ccc3c(c2)C(=O)c2ccccc2C3=O)[C@H](N)[C@@H](O)[C@@H]1O` (some centres undefined), the inhibition result in assay [1] was “Active”.
For `O=C1c2ccccc2C(=O)c2ccccc21`, in assay [1], the inhibition entry is “inactive”.
With `NCC1O[C@H](O[C@H]2[C@@H](O)[C@H](O[C@@H]3[C@@H](O)[C@H](N)C[C@H](N)[C@H]3O[C@H]3O[C@H](CN)[C@@H](O)[C@H](O)[C@H]3N)O[C@@H]2CSCCNC(=S)NCCCNC(=S)NCc2ccc3c(c2)C(=O)c2ccccc2C3=O)[C@H](N)[C@@H](O)[C@@H]1O` (some centres undefined), the inhibition result in assay [1] was “Active”.
In the case of `NCC1O[C@H](O[C@H]2[C@@H](O)[C@H](O[C@@H]3[C@@H](O)[C@H](N)C[C@H](N)[C@H]3O[C@H]3O[C@H](CN)[C@@H](O)[C@H](O)[C@H]3N)O[C@@H]2CSCCNC(=S)NCc2ccc3c(c2)C(=O)c2ccccc2C3=O)[C@H](N)[C@@H](O)[C@@H]1O` (some centres undefined), the Ka in [2] came to 3.62 ×10⁶ /M; in assay [3] it was 25.3 ×10⁶ /M. In addition, the result in assay [6] and in [7] was Active. Also, the inhibition result in assay [1] is “Active”.
On to `NCCCNCCCCNCCCN`, for which the outcome in assay [4] was Active.
Regarding `CN1/C(=C/c2cc[n+](C)c3ccccc23)Sc2ccccc21`, the result in [8] was inactive.
In the case of `NCC1O[C@H](O[C@H]2[C@@H](O)[C@H](O[C@@H]3[C@@H](O)[C@H](N)C[C@H](N)[C@H]3O[C@H]3O[C@H](CN)[C@@H](O)[C@H](O)[C@H]3N)O[C@@H]2CNC(=S)NCc2ccc3c(c2)C(=O)c2ccccc2C3=O)[C@H](N)[C@@H](O)[C@@H]1O` (some centres undefined), the Ka in assay [2] was 5.27 ×10⁶ /M; in assay [3], 14.1 ×10⁶ /M. For the same compound, the IC50 in assay [9] turned out to be 0.748 µM. In addition, the inhibition entry in assay [1] was “Active”.
Consider `NCC1O[C@H](O[C@H]2[C@@H](O)[C@H](O[C@@H]3[C@@H](O)[C@H](N)C[C@H](N)[C@H]3O[C@H]3O[C@H](CN)[C@@H](O)[C@H](O)[C@H]3N)O[C@@H]2CSCCNC(=S)Nc2ccc3c(c2)C(=O)c2ccccc2C3=O)[C@H](N)[C@@H](O)[C@@H]1O` (some centres undefined), for which the inhibition entry in assay [1] is “Active”.
In the case of `NCC1O[C@H](O[C@H]2[C@@H](O)[C@H](O[C@@H]3[C@@H](O)[C@H](N)C[C@H](N)[C@H]3O[C@H]3O[C@H](CN)[C@@H](O)[C@H](O)[C@H]3N)O[C@@H]2CNC(=S)NCCNC(=S)NCc2ccc3c(c2)C(=O)c2ccccc2C3=O)[C@H](N)[C@@H](O)[C@@H]1O` (some centres undefined), the Ka in [2] was found to be 3.85 ×10⁶ /M; in assay [3], 4.88 ×10⁶ /M. Moreover, the inhibition entry in [1] was “Active”.
Take `OCC(F)(F)F`: the result in assay [5] was Active.

Source of the values: ChEMBL document CHEMBL4000244, “Probing A-form DNA: A fluorescent aminosugar probe and dual recognition by anthraquinone-neomycin conjugates” (Bioorg Med Chem, 2017).
